Structures are written as SMILES.

The values below come from patent publication US8138168B1 (Takeda Pharmaceutical Company Limited, priority 2007, dated 2012).

This assay addresses T1, Recombinant human renin (Homo sapiens, UniProt P00797).
T1 construct: isolate the active form (residues 67-406); made in house; host or cells: FreeStyle 293-F cells (transient expression of pcDNA3.1(+)/hREN)
T1 sequence (P00797 67-406): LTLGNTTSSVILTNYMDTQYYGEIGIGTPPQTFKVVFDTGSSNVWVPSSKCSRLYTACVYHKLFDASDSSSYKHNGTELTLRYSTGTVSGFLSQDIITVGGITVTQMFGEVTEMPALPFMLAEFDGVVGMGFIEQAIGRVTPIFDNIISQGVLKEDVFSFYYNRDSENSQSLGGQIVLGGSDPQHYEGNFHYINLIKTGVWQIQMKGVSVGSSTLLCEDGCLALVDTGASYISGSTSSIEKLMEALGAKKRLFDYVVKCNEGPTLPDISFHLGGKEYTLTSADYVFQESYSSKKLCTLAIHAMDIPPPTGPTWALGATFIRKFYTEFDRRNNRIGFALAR
The assay can be described thus: In vitro enzymatic activity assay of renin inhibitors (fluorogenic peptide substrate). Type of assay: biochemical. To be noted: for IC50: read-out: IC50 of Exemplified Compounds Against Renin. The method in brief:
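Recombinant human renin (3 nM final) pre-incubated 10 min at 37 °C with compounds in pH 7.4 Hepes/EDTA/DTT/0.1 mg/mL BSA/Brij35 buffer (optionally plus 2% BSA), 5% DMSO final; fluorogenic QXL520/HiLyteFluo488 peptide substrate added.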

For orientation: IC50 means the concentration that inhibits the measured activity by half. For `COCCCn1c([C@@H]2CCCN(C(=O)C[C@H](N)CNC(=O)c3ccccc3)C2)nc2ccccc21` [Compound 317, N-((S)-2-amino-4-((R)-3-(1-(3-methoxypropyl)-1H-benzo[d]imidazol-2-yl)piperidin-1-yl)-4-oxobutyl)benzamide], the IC50 fell in the range of 0.1 to 1 µM.
With `COCCCn1c([C@@H]2CCCN(C(=O)C[C@H](N)Cc3ccc4ccccc4c3)C2)nc2ccc(Cl)cc21` [Compound 99, (R)-3-amino-1-((R)-3-(6-chloro-1-(3-methoxypropyl)-1H-benzo[d]imidazol-2-yl)piperidin-1-yl)-4-(naphthalen-2-yl)butan-1-one], the IC50 is 0.1 to 1 µM.
For the compound `Cc1nc2ccccc2n1[C@H]1CCCN(C(=O)C[C@H](N)Cc2ccc3ccccc3c2)C1` [Compound 244, (R)-3-amino-1-((S)-3-(2-methyl-1H-benzo[d]imidazol-1-yl)piperidin-1-yl)-4-(naphthalen-2-yl)butan-1-one], the IC50 was greater than 1 µM. Also, the “Eutomer / distomer designation of the separated stereoisomers” value (isomers separated by preparative SFC, more or less active isomer as renin inhibitor) was “Eutomer”.
`COCCCn1c([C@@H]2CCCN(C(=O)C[C@H](N)Cc3ccc(-c4ccc(N(C)C)nc4)cc3)C2)nc2ccccc21` [Compound 147, (R)-3-amino-4-(4-(6-(dimethylamino)pyridin-3-yl)phenyl)-1-((R)-3-(1-(3-methoxypropyl)-1H-benzo[d]imidazol-2-yl)piperidin-1-yl)butan-1-one]: the 50% inhibitory concentration (IC50) was less than 0.1 µM.
Take `COCCCn1c([C@@H]2CCCN(C(=O)C[C@H](N)CNC(=O)Nc3cccc(Cl)c3)C2)nc2ccccc21` [Compound 256, 1-((S)-2-ainino-4-((R)-3-(1-(3-methoxypropyl)-1H-benzo[d]imidazol-2-yl)piperidin-1-yl)-4-oxobutyl)-3-(3-chlorophenyl)urea]: the half-maximal inhibitory concentration (IC50) is less than 0.1 µM.
For the compound `COCCCn1c([C@@H]2CCCN(C(=O)C[C@H](N)CNC(=O)C(C)C)C2)nc2ccccc21` [Compound 333, N-((S)-2-amino-4-((R)-3-(1-(3-methoxypropyl)-1H-benzo[d]imidazol-2-yl)piperidin-1-yl)-4-oxobutyl)isobutyramide], the 50% inhibitory concentration (IC50) was greater than 1 µM.
For `COCCCn1c([C@@H]2CCCN(C(=O)C[C@H](N)Cc3ccc(-c4cnc(N)nc4)cc3)C2)nc2ccccc21` [Compound 154, (R)-3-amino-4-(4-(2-aminopyrimidin-5-yl)phenyl)-1-((R)-3-(1-(3-methoxypropyl)-1H-benzo[d]imidazol-2-yl)piperidin-1-yl)butan-1-one], the IC50 is less than 0.1 µM.
For the compound `COCCCn1c([C@@H]2CCCN(C(=O)C[C@H](N)Cc3ccc(-c4ccncc4)cc3)C2)nc2ccccc21` [Compound 126, (R)-3-amino-1-((R)-3-(1-(3-methoxypropyl)-1H-benzo[d]imidazol-2-yl)piperidin-1-yl)-4-(4-(pyridin-4-yl)phenyl)butan-1-one], the half-inhibitory concentration (IC50) was less than 0.1 µM.
With `COCCCn1c([C@@H]2CCCN(C(=O)C[C@H](N)CNC(=O)c3cccc(-c4noc(C)n4)c3)C2)nc2ccccc21` [Compound 303, N-((S)-2-amino-4-((R)-3-(1-(3-methoxypropyl)-1H-benzo[d]imidazol-2-yl)piperidin-1-yl)-4-oxobuty)-3-(5-methyl-1,2,4-oxadiazol-3-yl)benzamide], the concentration for half-maximal inhibition (IC50) lay within 0.1 to 1 µM.
As for `CC(=O)NCCn1c([C@@H]2CCCN(C(=O)C[C@H](N)Cc3ccc(-c4ccc(O)nc4)cc3)C2)nc2ccccc21` [Compound 445, N-(2-(2-((R)-1-((R)-3-amino-4-(4-(6-hydroxypyridin-3-yl)phenyl)butanoyl)piperidin-3-yl)-1H-benzo[d]imidazol-1-yl)ethyl)acetamide], the concentration for half-maximal inhibition (IC50) was 0.1 to 1 µM.
Turning to `COC(=O)[C@@H](Cc1ccccc1)NC(=O)N1CCCC(c2nc3ccccc3[nH]2)C1` (stereo partly drawn) [Compound 13, (2R)-methyl 2-(3-(1H-benzo[d]imidazol-2-yl)piperidine-1-carboxamido)-3-phenylpropanoate], the IC50 was greater than 1 µM.
Turning to `CCCn1c(=O)n(-c2ccc(C[C@@H](N)CC(=O)N3CCC[C@@H](c4nc5ccccc5n4CCCOC)C3)cc2)c2ccccc21` [Compound 221, 1-(4-((R)-2-amino-4-((R)-3-(1-(3-methoxypropyl)-1H-benzo[d]imidazol-2-yl)piperidin-1-yl)-4-oxobutyl)phenyl)-3-propyl-1H-benzo[d]imidazol-2(3H)-one], the IC50 is less than 0.1 µM.
On to `COCCCn1c([C@@H]2CCCN(C(=O)C[C@H](N)Cc3ccc(N4CCN(C(C)=O)CC4)cc3)C2)nc2ccccc21` [Compound 232, (R)-4-(4-(4-acetylpiperazin-1-yl)phenyl)-3-amino-1-((R)-3-(1-(3-methoxypropyl)-1H-benzo[d]imidazol-2-yl)piperidin-1-yl)butan-1-one], for which the 50% inhibitory concentration (IC50) lay in the range of 0.1 to 1 µM.
For `COC(=O)Nc1ccc(-c2ccc(C[C@@H](N)CC(=O)N3CCC[C@@H](c4nc5ccccc5n4CCNC(C)=O)C3)cc2)cc1` [Compound 457, methyl 4′-((R)-4-((R)-3-(1-(2-acetamidoethyl)-1H-benzo[d]imidazol-2-yl)piperidin-1-yl)-2-amino-4-oxobutyl)biphenyl-4-ylcarbamate], the IC50 was less than 0.1 µM.
Regarding `COCCCn1c([C@@H]2CCCN(C(=O)C[C@H](N)COCc3ccccc3)C2)nc2ccccc21` [Compound 88, (S)-3-amino-4-(benzyloxy)-1-((R)-3-(1-(3-methoxypropyl)-1H-benzo[d]imidazol-2-yl)piperidin-1-yl)butan-1-one], the IC50 was greater than 1 µM.
Still for that read-out and setting: with `COCCCNC(=O)c1ccc(-c2ccc(C[C@@H](N)CC(=O)N3CCC[C@@H](c4nc5ccccc5n4CCCOC)C3)cc2)cc1` [Compound 180, 4′-((R)-2-amino-4-((R)-3-(1-(3-methoxypropyl)-1H-benzo[d]imidazol-2-yl)piperidin-1-yl)-4-oxobutyl)-N-(3-methoxypropyl)biphenyl-4-carboxamide] the figure was less than 0.1 µM.
Turning to `COCCCn1c([C@@H]2CCCN(C(=O)C[C@H](N)Cc3ccc4ccccc4c3)C2)nc2ccc(Cl)nc21` [Compound 502, (3R)-3-amino-1-(3-(5-chloro-3-(3-methoxypropyl)-3H-imidazo[4,5-b]pyridin-2-yl)piperidin-1-yl)-4-(naphthalen-2-yl)butan-1-one], the concentration for half-maximal inhibition (IC50) is greater than 1 µM.
Turning to `COCCCn1c([C@@H]2CCCN(C(=O)C[C@H](N)Cc3ccc(-c4ccc5c(c4)SCC(=O)N5)cc3)C2)nc2c(F)cccc21` [Compound 442, 7-(4-((R)-2-amino-4-((R)-3-(4-fluoro-1-(3-methoxypropyl)-1H-benzo[d]imidazol-2-yl)piperidin-1-yl)-4-oxobutyl)phenyl)-2H-benzo[b][1,4]thiazin-3(4H)-one], the IC50 was less than 0.1 µM.
On the same count and under the same terms, with `COCCCn1c([C@@H]2CCCN(C(=O)C[C@H](N)Cc3ccc(-c4ccn[nH]4)cc3)C2)nc2ccccc21` [Compound 141, (R)-4-(4-(1H-pyrazol-5-yl)phenyl)-3-amino-1-((R)-3-(1-(3-methoxypropyl)-1H-benzo[d]imidazol-2-yl)piperidin-1-yl)butan-1-one] the figure was 0.1 to 1 µM.
As for `CCOC(=O)c1ccccc1NC(=O)NC[C@@H](N)CC(=O)N1CCC[C@@H](c2nc3ccccc3n2CCCOC)C1` [Compound 330, ethyl 2-(3-((S)-2-amino-4-((R)-3-(1-(3-methoxypropyl)-1H-benzo[d]imidazol-2-yl)piperidin-1-yl)-4-oxobutyl)ureido)benzoate], the half-inhibitory concentration (IC50) is greater than 1 µM.
With `COCCCn1c([C@@H]2CCCN(C(=O)C[C@H](N)Cc3ccc(-n4c(=O)n(CCO)c5ccccc54)cc3)C2)nc2ccccc21` [Compound 222, 1-(4-((R)-2-amino-4-((R)-3-(1-(3-methoxypropyl)-1H-benzo[d]imidazol-2-yl)piperidin-1-yl)-4-oxobutyl)phenyl)-3-(2-hydroxyethyl)-1H-benzo[d]imidazol-2(3H)-one], the half-inhibitory concentration (IC50) was less than 0.1 µM.
Same read-out and setting: with `O=C(Nc1ccccc1-c1ccccc1)N1CCCC(c2nc3ccccc3[nH]2)C1` (centres unmarked) [Compound 16, 3-(1H-benzo[d]imidazol-2-yl)-N-(biphenyl-2-yl)piperidine-1-carboxamide] the figure was greater than 1 µM; with `COCCCn1c([C@@H]2CCCN(C(=O)C[C@H](N)Cc3ccc(-c4ccc(C(=O)N5CC[C@@H](O)C5)cc4)cc3)C2)nc2ccccc21` [Compound 185, (R)-3-amino-4-(4′-((R)-3-hydroxypyrrolidine-1-carbonyl)biphenyl-4-yl)-1-((R)-3-(1-(3-methoxypropyl)-1H-benzo[d]imidazol-2-yl)piperidin-1-yl)butan-1-one], less than 0.1 µM.
Same read-out and setting: with `COCCCn1c([C@@H]2CCCN(C(=O)[C@@H]3CN(S(=O)(=O)c4cc(Cl)ccc4Cl)C[C@H]3N)C2)nc2ccccc21` [Compound 343, ((3R,4S)-4-amino-1-(2,5-dichlorophenylsulfonyl)pyrrolidin-3-yl)((R)-3-(1-(3-methoxypropyl)-1H-benzo[d]imidazol-2-yl)piperidin-1-yl)methanone] the figure was 0.1 to 1 µM; with `CC(=O)NCCn1c([C@@H]2CCCN(C(=O)C[C@H](N)Cc3ccc(-c4ccc5c(c4)OC(F)(F)O5)cc3)C2)nc2ccccc21` [Compound 448, N-(2-(2-((R)-1-((R)-3-amino-4-(4-(2,2-difluorobenzo[d][1,3]dioxol-5-yl)phenyl)butanoyl)piperidin-3-yl)-1H-benzo[d]imidazol-1-yl)ethyl)acetamide], 0.1 to 1 µM.
